Measured values published in patent publication US20240217978A1 (CHONG KUN DANG PHARMACEUTICAL CORP., priority 2021, published 2024).

Target: human adenosine A2a receptor (Homo sapiens (Human), UniProt P29274)
Test: A2a receptor binding affinity, [3H]-NECA radioligand binding test
Conditions: [3H]-NECA 37 nM; membrane from HEK-293 cells transfected with human adenosine A2a receptor
Outline: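 IC50 values (μM) come from displacement of [3H]-NECA, used at 37 nM final, on human A2a receptor membranes from transfected HEK-293 cells. Incubation lasted one hour at room temperature in Tris/MgCl2/EDTA buffer, pH 7.4; filter-bound radioactivity was counted by scintillation.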

Chain of human adenosine A2a receptor (P29274 whole entry): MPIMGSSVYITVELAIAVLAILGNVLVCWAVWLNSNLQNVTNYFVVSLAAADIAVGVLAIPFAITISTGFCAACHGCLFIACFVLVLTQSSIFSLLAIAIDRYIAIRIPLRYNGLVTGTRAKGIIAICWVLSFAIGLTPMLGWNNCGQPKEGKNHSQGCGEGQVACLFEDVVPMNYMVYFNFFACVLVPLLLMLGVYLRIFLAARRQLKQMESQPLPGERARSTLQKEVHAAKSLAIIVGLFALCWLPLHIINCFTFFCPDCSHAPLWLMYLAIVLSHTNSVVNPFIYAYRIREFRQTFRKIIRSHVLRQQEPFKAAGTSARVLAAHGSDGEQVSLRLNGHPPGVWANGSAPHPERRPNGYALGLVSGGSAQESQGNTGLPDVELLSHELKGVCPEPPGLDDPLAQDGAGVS

Structure (SMILES)	IC50 [nM]
COc1cccc(CN2CCN(C(=O)[C@H](C)Nc3nc(N)n4nc(-c5ccco5)nc4n3)CC2)c1 [Example 24, (S)-2-((7-amino-2-(furan-2-yl)-[1,2,4]triazolo[1,5-a][1,3,5]triazin-5-yl)amino)-1-(4-(3-methoxybenzyl)piperazin-1-yl)propan-1-one]	33
Nc1nc(N2CCC[C@H]2C(=O)N2C[C@@H]3C[C@H]2CN3Cc2ccc(F)cc2F)nc2nc(-c3ccco3)nn12 [Example 44, ((S)-1-(7-amino-2-(furan-2-yl)-[1,2,4]triazolo[1,5-a][1,3,5]triazin-5-yl)pyrrolidin-2-yl)((1S,4S)-5-(2,4-difluorobenzyl)-2,5-diazabicyclo[2.2.1]heptan-2-yl)methanone]	10
Nc1nc(N2CCC[C@H]2C(=O)N2CCN(c3ccc(F)cc3)C(=O)C2)nc2nc(-c3ccco3)nn12 [Example 236, 4-((7-amino-2-(furan-2-yl)-[1,2,4]triazolo[1,5-a][1,3,5]triazin-5-yl)-L-prolyl)-1-(4-fluorophenyl)piperazin-2-one]	2
Nc1nc(N2CCC[C@H]2C(=O)N2CCC(C3CCN(CC(F)(F)F)CC3)CC2)cc2nc(-c3ccco3)nn12 [Example 376, (S)-(1-(5-amino-2-(furan-2-yl)-[1,2,4]triazolo[1,5-c]pyrimidin-7-yl)pyrrolidin-2-yl)(1′-(2,2,2-trifluoroethyl)-[4,4′-bipiperidin]-1-yl)methanone]	1
Nc1nc(N2CCC[C@H]2C(=O)N2CCC(C(=O)Nc3cccc(C(F)F)c3)CC2)nc2nc(-c3ccco3)nn12 [Example 132, 1-((7-amino-2-(furan-2-yl)-[1,2,4]triazolo[1,5-a][1,3,5]triazin-5-yl)-L-prolyl)-N-(3-(difluoromethyl)phenyl)piperidin-4-carboxamide]	11
C[C@H](Nc1nc(N)n2nc(-c3ccco3)nc2n1)C(=O)N1CCC2(CC1)CN(Cc1ccc(F)cc1F)C2 [Example 31, (S)-2-((7-amino-2-(furan-2-yl)-[1,2,4]triazolo[1,5-a][1,3,5]triazin-5-yl)amino)-1-(2-(2,4-difluorobenzyl)-2,7-diazaspiro[3.5]nonan-7-yl)propan-1-one]	1
CC(C)C(=O)N1CCN(C(=O)[C@H](Cc2ccccc2)Nc2nc(N)n3nc(-c4ccco4)nc3n2)CC1 [Example 5, (S)-2-((7-amino-2-(furan-2-yl)-[1,2,4]triazolo[1,5-a][1,3,5]triazin-5-yl)amino)-1-(4-isobutyrylpiperazin-1-yl)-3-phenylpropan-1-one]	1.26
CCC(O)(CC)CN1CCN(C(=O)[C@@H](Nc2nc(N)n3nc(-c4ccco4)nc3n2)C(C)C)CC1 [Example 348, (S)-2-((7-amino-2-(furan-2-yl)-[1,2,4]triazolo[1,5-a][1,3,5]triazin-5-yl)amino)-1-(4-(2-ethyl-2-hydroxybutyl)piperazin-1-yl)-3-methylbutan-1-one]	5
Nc1nc(N[C@@H](Cc2ccccc2)C(=O)N2CCN(Cc3cccc(F)c3)CC2)nc2nc(-c3ccco3)nn12 [Example 17, (S)-2-((7-amino-2-(furan-2-yl)-[1,2,4]triazolo[1,5-a][1,3,5]triazin-5-yl)amino)-1-(4-(3-fluorobenzyl)piperazin-1-yl)-3-phenylpropan-1-one]	0.135
CC(C)[C@H](Nc1nc(N)n2nc(-c3ccco3)nc2n1)C(=O)N1CCN(CC(C)(C)O)CC1 [Example 351, (S)-2-((7-amino-2-(furan-2-yl)-[1,2,4]triazolo[1,5-a][1,3,5]triazin-5-yl)amino)-1-(4-(2-hydroxy-2-methylpropyl)piperazin-1-yl)-3-methylbutan-1-one]	17
CCCCN1CCN(C(=O)[C@@H](Nc2nc(N)n3nc(-c4ccco4)nc3n2)C(C)C)CC1 [Example 143, (S)-2-((7-amino-2-(furan-2-yl)-[1,2,4]triazolo[1,5-a][1,3,5]triazin-5-yl)amino)-1-(4-butylpiperazin-1-yl)-3-methylbutan-1-one]	20
Nc1nc(N2CCC[C@@H]2C(=O)N2CCN(C(=O)Nc3ccccc3)CC2)nc2nc(-c3ccco3)nn12 [Example 100]	9460
Cc1ccc(-c2nc3nc(N4CCC[C@H]4C(=O)N4CCN(c5ccccc5C(F)(F)F)CC4)nc(N)n3n2)o1 [Example 200, (S)-(1-(7-amino-2-(5-methylfuran-2-yl)-[1,2,4]triazolo[1,5-a][1,3,5]triazin-5-yl)pyrrolidin-2-yl)(4-(2-(trifluoromethyl)phenyl)piperazin-1-yl)methanone]	1
Nc1nc(N2CCC[C@H]2C(=O)N2CCC(C(=O)NCc3ccccc3)CC2)nc2nc(-c3ccco3)nn12 [Example 81, 1-((7-amino-2-(furan-2-yl)-[1,2,4]triazolo[1,5-a][1,3,5]triazin-5-yl)-L-prolyl)-N-benzylpiperidin-4-carboxamide]	8
COCCN1CCC(C2CCN(C(=O)[C@@H]3CCN3c3cc4nc(-c5ccco5)nn4c(N)n3)CC2)CC1 [Example 380, (S)-(1-(5-amino-2-(furan-2-yl)-[1,2,4]triazolo[1,5-c]pyrimidin-7-yl)azetidin-2-yl)(1′-(2-methoxyethyl)-[4,4′-bipiperidin]-1-yl)methanone]	5
Nc1nc(N[C@H](C(=O)N2CCN(c3nccs3)CC2)C2CCOCC2)nc2nc(-c3ccco3)nn12 [Example 249, (S)-2-((7-amino-2-(furan-2-yl)-[1,2,4]triazolo[1,5-a][1,3,5]triazin-5-yl)amino)-2-(tetrahydro-2H-pyran-4-yl)-1-(4-(thiazol-2-yl)piperazin-1-yl)ethan-1-one]	9

The next lines start with the values.

IC50 [nM]	Structure (SMILES)
6	Nc1nc(N2CCC[C@H]2C(=O)N2CCN(C(=O)c3ccccc3)CC2)nc2nc(-c3ccco3)nn12 [Example 46]
3	Nc1nc(N2CCC[C@H]2C(=O)N2CCN(CC(F)F)CC2)cc2nc(-c3ccco3)nn12 [Example 293, (S)-(1-(5-amino-2-(furan-2-yl)-[1,2,4]triazolo[1,5-c]pyrimidin-7-yl)pyrrolidin-2-yl)(4-(2,2-difluoroethyl)piperazin-1-yl)methanone]
2	CCCCCN1CCN(C(=O)[C@@H]2CCCN2c2nc(N)n3nc(-c4ccco4)nc3n2)CC1 [Example 138, (S)-(1-(7-amino-2-(furan-2-yl)-[1,2,4]triazolo[1,5-a][1,3,5]triazin-5-yl)pyrrolidin-2-yl)(4-pentylpiperazin-1-yl)methanone]
0.8	Nc1nc(N2CC[C@H]2C(=O)N2CCC(C3CCN(CC(F)(F)C(F)(F)F)CC3)CC2)nc2nc(-c3ccco3)nn12 [Example 326, (S)-(1-(7-amino-2-(furan-2-yl)-[1,2,4]triazolo[1,5-a][1,3,5]triazin-5-yl)azetidin-2-yl)(1′-(2,2,3,3,3-pentafluoropropyl)-[4,4′-bipiperidin]-1-yl)methanone]
13	CC(F)(F)CN1CCC2(CC1)CN(C(=O)[C@@H]1CCCN1c1nc(N)n3nc(-c4ccco4)nc3n1)C2 [Example 365, (S)-(1-(7-amino-2-(furan-2-yl)-[1,2,4]triazolo[1,5-a][1,3,5]triazin-5-yl)pyrrolidin-2-yl)(7-(2,2-difluoropropyl)-2,7-diazaspiro[3-5]nonan-2-yl)methanone]
9	Nc1nc(N2CCCC[C@H]2C(=O)N2CCN(CC(F)(F)C(F)(F)F)CC2)nc2nc(-c3ccco3)nn12 [Example 280, (S)-(1-(7-amino-2-(furan-2-yl)-[1,2,4]triazolo[1,5-a][1,3,5]triazin-5-yl)piperidin-2-yl)(4-(2,2,3,3,3-pentafluoropropyl)piperazin-1-yl)methanone]
0.9	Nc1nc(N2CCC[C@H]2C(=O)N2CCN(CC(F)(F)C(F)(F)F)CC2)nc2sc(-c3ccco3)nc12 [Example 261, (S)-(1-(7-amino-2-(furan-2-yl)thiazolo[5,4-d]pyrimidin-5-yl)pyrrolidin-2-yl)(4-(2,2,3,3,3-pentafluoropropyl)piperazin-1-yl)methanone]
28	Nc1nc(N2CCC[C@H]2C(=O)N2CCN(CC(F)F)CC23CC3)nc2nc(-c3ccco3)nn12 [Example 341, (S)-(1-(7-amino-2-(furan-2-yl)-[1,2,4]triazolo[1,5-a][1,3,5]triazin-5-yl)pyrrolidin-2-yl)(7-(2,2-difluoroethyl)-4,7-diazaspiro[2.5]octan-4-yl)methanone]
6	CC(C)(O)CN1CCN(C(=O)[C@@H]2CCCN2c2nc(N)n3nc(-c4ccco4)nc3n2)CC1 [Example 302, (S)-(1-(7-amino-2-(furan-2-yl)-[1,2,4]triazolo[1,5-a][1,3,5]triazin-5-yl)pyrrolidin-2-yl)(4-(2-hydroxy-2-methylpropyl)piperazin-1-yl)methanone]
9	Cc1ccc(-c2nc3nc(N4CCC[C@H]4C(=O)N4CCN(CC(F)(F)C(F)(F)F)CC4)nc(N)n3n2)o1 [Example 299, (S)-(1-(7-amino-2-(5-methylfuran-2-yl)-[1,2,4]triazolo[1,5-a][1,3,5]triazin-5-yl)pyrrolidin-2-yl)(4-(2,2,3,3,3-pentafluoropropyl)piperazin-1-yl)methanone]
12	CC(F)(F)CN1CC2(CCN(C(=O)[C@@H]3CCCN3c3nc(N)n4nc(-c5ccco5)nc4n3)CC2)C1 [Example 364, (S)-(1-(7-amino-2-(furan-2-yl)-[1,2,4]triazolo[1,5-a][1,3,5]triazin-5-yl)pyrrolidin-2-yl)(2-(2,2-difluoropropyl)-2,7-diazaspiro[3.5]nonan-7-yl)methanone]
5	Nc1nc(N2CCC[C@H]2C(=O)N2CCC(C3CCN(CCCC(F)(F)F)CC3)CC2)nc2nc(-c3ccco3)nn12 [Example 291, (S)-(1-(7-amino-2-(furan-2-yl)-[1,2,4]triazolo[1,5-a][1,3,5]triazin-5-yl)pyrrolidin-2-yl)(1′-(4,4,4-trifluorobutyl)-[4,4′-bipiperidin]-1-yl)methanone]
8	Cc1ccc(-c2nc3nc(N4CCC[C@H]4C(=O)N4CCN(CC(C)(C)F)CC4)nc(N)n3n2)o1 [Example 90, (S)-(1-(7-amino-2-(5-methylfuran-2-yl)-[1,2,4]triazolo[1,5-a][1,3,5]triazin-5-yl)pyrrolidin-2-yl)(4-(2-fluoro-2-methylpropyl)piperazin-1-yl)methanone]
